Experimental data taken from patent US20240209061A1, “FUSION PROTEINS AND USES THEREOF” (Pfizer Inc., priority 2020, published 2024).
“Also recorded” adds a separate entry of the source.

Key:
recombinant soluble CD28 = target: T1, recombinant soluble CD28 (Homo sapiens, UniProt P10747); assay: ELISA binding to recombinant soluble CD28; conditions: standard ELISA, FIG. 2A
T1 construct: Recombinant soluble CD28 and CTLA-4 proteins (from Creative BioMart, Product #CD28-3910H, CTLA-4-2232H) were immobilized; purchased Creative BioMart CD28-3910H
Procedure: Binding affinity of purified CD80-Fc fusion proteins (WT and variant) to recombinant soluble CD28 and CTLA-4 proteins was determined by standard ELISA. Recombinant soluble CD28 and CTLA-4 proteins (from Creative BioMart, Product #CD28-3910H, CTLA-4-2232H) were immobilized on 96 well microtiter plate (Thermo Scientific, Product #436110) in bicarbonate buffer at 4° C. overnight. After washing with 1×PBS containing 0.05% Tween 20 (wash buffer) plates were incubated with blocking buffer, 5% BSA in PBS, for 1 hour at room temperature. A serial dilution of CD80-Fc fusion proteins and human IgG1 isotype control antibody was prepared in blocking buffer, added into the plate and incubated at room temperature for 1 hour. Following washing 3× with wash buffer, 1:4000 dilution of HRP conjugated secondary anti-human IgG1 antibody (R&D Systems, MAB110-100) was added into the plate and incubated at room temperature for 1 hour. Plates were washed 3× with wash buffer and a 100 μl of LumiGlo (SeraCare, Product #5430-0040) reagent added into each well, incubated for 5 minutes at room temperature before reading luminescence signal in EnSight™ plate reader (PerkinElmer).

[1] = tested on: NY-ESO1-TCR+ Jurkat reporter cells; assay: Jurkat-NYESO1-IL-2-Luc and A375-CD64 co-stimulation assay; type: cell-based, human
Excerpt: Jurkat-IL-2-Luc reporter cells (Promega, Product #J1631) were engineered with T cell receptor, TCR (Wargo J. Cancer Immunol Immunother 2009; Zhao Y. J Immunol 2005, Li Y, Nat Biotechnol 2005) against HLA-A2 restricted NY-ESO1 (SLLMWITQC-SEQ ID NO: 19) epitope using lentiviral transduction system. Human melanoma cells A375, which express human HLA-A*0201, were transduced with lentiviral vector containing endogenous codon for NY-ESO1 gene (Refseq accession NM_001327.2, CCDS14758.1). Upon expression, the construct underwent proteolytic cleavage at the ubiquitin/epitope junction, thus generating free, cytoplasmic epitope, which can be translocated into the endoplasmic reticulum and loaded onto class I HLA. A375-NY-ESO1 positive cells were treated with IFNγ to induce HLA expression and NY-ESO1 antigen presentation. The HLA expression and the antigen presentation was confirmed by Western Blot. The NY-ESO1^+-A375 cells were further engineered to express human FCγRI (CD64, GenBank:AAA58414.1, RefSeq:P12314.1) for cell surface assembly and displaying of CD80-Fc fusion proteins. The expression of FCγRI was confirmed by flow cytometry analysis.
A 96 well culture plate was seeded with NY-ESO1^+-A375 cells or NY-ESO1^+/FCγRI^+-A375 at 40,000 cells per well in 100 µL growth media (RPMI, 10% Heat Inactivated FBS, 200 μg/mL Hygromycin B, 1 mM sodium pyruvate, 0.1 mM MEM NEAA, 1 μg/mL puromycin) containing 10 ng/ml of human IFNγ (R&D Systems, product #285-IF) to induce MHC-A2 expression and grown overnight at 37° C. in CO2 incubator. To each well, NY-ESO1-TCR^+ Jurkat reporter cells, 100,000 (in 20 μL media), were added. 20 μL of serial dilutions of variant CD80-Fc fusion proteins with concentrations ranging from 0-1000 ng/ml (final concentrations per well) was added with appropriate controls. Assay plates were incubated for 6 hours at 37° C. in CO2 incubator. Following equilibration, 80 μL BioGlo luminescence reagent (BioGlo Luciferase assay kit, Promega, G7940) was added into each well. Plates were incubated for 5 minutes before reading luminescence on the EnSight™ plate reader (PerkinElmer).

human PD-L1 = human PD-L1 (Homo sapiens, UniProt Q9NZQ7); assay: SPR (Biacore) binding to immobilized human PD-L1; conditions: Human PD-L1 immobilized at 60 μg/ml and 75 μg/ml
Chain of human PD-L1 (Q9NZQ7 19-238 limits assumed): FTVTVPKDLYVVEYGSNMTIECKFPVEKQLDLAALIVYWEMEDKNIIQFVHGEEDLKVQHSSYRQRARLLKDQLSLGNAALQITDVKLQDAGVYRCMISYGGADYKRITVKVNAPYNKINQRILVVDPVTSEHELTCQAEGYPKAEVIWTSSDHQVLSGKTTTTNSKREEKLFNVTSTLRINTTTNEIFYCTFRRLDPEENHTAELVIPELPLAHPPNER
Procedure: (physiologic temperature) with a collection rate of 10 Hz. Purified soluble ligands were covalently coupled onto a CM5 sensor chip using an Amine coupling Kit (GE Healthcare, Product #BR100050) following the manufacturer's recommendations. […] The flow was again returned to running buffer and dissociation was monitored for 300 sec. Binding affinities and rate constants were determined by fitting the resulting double referenced (Myszka, D. G. J. Mol. Recognit. 12, 279-284 (1999)) sensorgram data to a 1:1 Langmuir model with Biacore Insight Evaluation software version 2.0 (GE Healthcare).
Binding of variant CD80-Fc to PD-L1 was not detected. FIG. 9A-9D show the SPR sensorgrams depicting binding of varying concentrations of CD80-WT-Fc and CD80-K89D-D90K-T28V-T57V-Fc to two different concentrations of immobilized human PD-L1 (60 μg/ml and 75 μg/ml).

[2] = tested on: EMT6 murine breast cancer cells; assay: EMT6 murine breast cancer model; type: in vivo, mouse; conditions: for Day 17 tumor volume: Days 0 and 3; for % tumor growth inhibition: Day 17; for # IFNγ-producing spots, Spleen / # IFNγ-producing spots, TDLN: average of n = 4 mice; for CD8^+ T cell infiltrates (% CD45): EMT6, n=4
Procedure: EMT6 murine breast cancer cells (3×10^5) were orthotopically implanted in the mammary fat pad of female Balb/c mice. When tumors reached ˜90 mm^3 (day 5 after implantation), mice were randomized. PBS vehicle control or variant CD80-Fc fusion proteins were dosed intravenously at 0.01, 0.1, 1.0 and 3.0 mg/kg on Days 0 and 3. Tumor volume was determined by caliper measurements obtained in 2 dimensions and calculated as width^2×length/2. Error bars are depicted as ±SEM.
Tumor-reactive T cells in the spleen and tumor-draining lymph nodes (TDLNs) were measured by IFNγ ELIspot in mice treated with CD80-K89D-D90K-T28V-T57V-Fc.
Cytotoxic CD8^+ T cells are responsible for killing cancer cells and the measurement of CD8^+ T cells that have infiltrated tumors commonly correlates with efficacy for immune-oncology therapies. For all in vivo studies, tumors were collected ˜1 week after the first dose and dissociated by mincing, followed by incubation in an enzymatic digestion cocktail and homogenization. The resulting cell suspension was filtered and washed, and single cells were stained with antibodies to CD45, CD8, and a viability dye to detect tumor-infiltrating lymphocytes (TILs) by flow cytometry. Data were acquired on a BD LSRFortessa flow cytometer or a Cytek Aurora spectral flow cytometer. Table 31 and FIG. 18 show the amount of tumor-infiltrating CD8+ T cells expressed as a percentage of total immune cells (CD45+). Each value is the average of n=4 mice per group. Treatment with all variant CD80-Fc fusion proteins led to increase in CD8+ TILs in various tumor models.

Row | Substance | binding affinity to CD28 compared to WT CD80-Fc (recombinant soluble CD28) | enhanced co-stimulation compared to CD80-WT-Fc [1] | binding to PD-L1 (human PD-L1) | Day 17 tumor volume ([2]; 0.01 mg/kg IV) [mm^3] | % tumor growth inhibition ([2]; 0.01 mg/kg) [%] | Day 17 tumor volume ([2]; 0.1 mg/kg IV) [mm^3] | % tumor growth inhibition ([2]; 0.1 mg/kg) [%] | Day 17 tumor volume ([2]; 1 mg/kg IV) [mm^3] | % tumor growth inhibition ([2]; 1 mg/kg) [%] | Day 17 tumor volume ([2]; 3 mg/kg IV) [mm^3] | % tumor growth inhibition ([2]; 3 mg/kg) [%] | also measured
1 | CD80-D90Q-Fc: variant CD80 ECD (D90Q) fused to human IgG1 Fc | increased binding affinity to CD28 | about 4 fold | – | – | – | – | – | – | – | – | – | –
2 | CD80-K89D-D90K-T28V-T57V-Fc: non-cysteine stabilized variant CD80-Fc fusion protein (K89D, D90K, T28V, T57V) | – | – | undetectable; also recorded: No binding | 1552.0 | 0.4 | 981.2 | 39.0 | 818.8 | 50.1 | 133.4 | 96.6 | # IFNγ-producing spots, Spleen ([2]; 0.01 mg/kg): 123.1; # IFNγ-producing spots, TDLN ([2]; 0.01 mg/kg): 51.9; # IFNγ-producing spots, Spleen ([2]; 0.1 mg/kg): 117.9; # IFNγ-producing spots, TDLN ([2]; 0.1 mg/kg): 132.3; # IFNγ-producing spots, Spleen ([2]; 1 mg/kg): 336.4; # IFNγ-producing spots, TDLN ([2]; 1 mg/kg): 475.2; # IFNγ-producing spots, Spleen ([2]; 3 mg/kg): 427.7; # IFNγ-producing spots, TDLN ([2]; 3 mg/kg): 540.9; CD8^+ T cell infiltrates (% CD45) ([2]; 0.01 mg/kg): 3.98 % CD45; CD8^+ T cell infiltrates (% CD45) ([2]; 0.1 mg/kg): 9.59 % CD45; CD8^+ T cell infiltrates (% CD45) ([2]; 1 mg/kg): 15.91 % CD45; CD8^+ T cell infiltrates (% CD45) ([2]; 3 mg/kg): 8.19 % CD45
3 | CD80-K89Q-D90Q-E23C-A26C-Fc: disulfide stabilized variant CD80-Fc fusion protein (K89Q, D90Q, E23C, A26C) | – | – | – | 1581.7 | −1.7 | 912.2 | 43.7 | 357.2 | 81.4 | 457.5 | 74.6 | –
4 | CD80-K89Q-D90Q-Fc: variant CD80 ECD (K89Q, D90Q) fused to human IgG1 Fc | increased binding affinity to CD28 | about 4 fold | – | – | – | – | – | – | – | – | – | –
5 | CD80-WT-Fc: wild-type human CD80 extracellular domain fused to human IgG1 Fc (C220S) [reference compound] | – | – | detectable binding | – | – | – | – | – | – | – | – | –
